Experiments:
P388/0 = experiment: In vitro cytotoxicity assay (Alamar Blue), P388/0 cells; format: cell-based; settings: 3 days incubation
Method: Cell Lines and Cytotoxicity Assays. Studies using P388/0 cell lines for IC50 (drug concentration inhibiting growth of cells by 50%) were maintained and conducted using standard procedures. Briefly, for IC50 determination, cells were seeded into the microwell plates at a density of 2×10^3 cells per 50 μL per well. Plates were incubated at 37° C. in a humidified incubator with 5% CO2 for 3 days. Cell growth was measured by the addition of 10 μL/well of Alamar Blue (Alamar Biosciences, Inc., Sacramento, Calif.) and the plates were incubated a further 4 hours at 37° C. The IC50 values for each compound were determined from absorbance versus dilution factor plots. All cell cultures for animal implantation were maintained at 37° C. in a humidified atmosphere of 5% CO2/[…] and subcultured once a week. All cell lines were periodically tested for Mycoplasma and were Mycoplasma free.

[1] = system: subcutaneous human non-small cell lung carcinoma (LX-1); experiment: In vivo efficacy against subcutaneous LX-1 tumor xenograft in nude mice; settings: for Effectiveness in LX-1 solid tumor model (in words): Ara-C 100 mg/kg/dose, PEG-ara-C 20 mg/kg/dose (one fifth of native dose), i.v. x4; for Mean Vol. ± SEM at Day 24 / % Change ± SEM at Day 24 (mean percent change in individual tumor volumes from initial): LX-1 s.c. in nude mice, PEG-Ara-C 80 mg/kg; for Mean Vol. ± SEM at Day 24: i.v. x4 doses (day 1, 4, 7, 10), baseline 300 mm^3; for Mean Vol. ± SEM at Day 24 / % Change ± SEM at Day 24 (mean percent change in individual tumor volumes from initial) / T/C (%) at Day 7 / T/C (%) at Day 24 / Regression at Day 24 (#/Grp) / Complete Regression (#/Grp): total dose Ara-C 400 mg/kg; for % Change ± SEM at Day 24 (mean percent change in individual tumor volumes from initial): i.v. x4 doses; for T/C (%) at Day 7: median tumor volume treated vs control when control median approx. 1000 mm^3 (day 7); for T/C (%) at Day 7 / T/C (%) at Day 24 / Regression at Day 24 (#/Grp) / Complete Regression (#/Grp): PEG-Ara-C 80 mg/kg i.v.; for T/C (%) at Day 24: median tumor volume treated vs control when control median approx. 2400 mm^3 (day 24); for Regression at Day 24 (#/Grp): smaller tumor volume on day 24 compared to day 1
Method: Athymic nude mice were implanted subcutaneous with a 4-5 mm^3 tissue fragment of LX-1 collected from donor mice. The tumor trocar site was observed twice weekly and measured once palpable. […] The mice were sorted to evenly distribute tumor size, grouped into 6 to 7 mice per group, and ear punched for permanent identification. Drugs were administered intravenously every 3 days×4 doses (day 1, 4, 7 and 10) via the tail vein at an approximate rate of 0.5 mL per minute. […] Therefore, this study compares the PEG-conjugate at one fifth the native dose, and presumably much less than its MTD. Mouse weight and tumor size were measured at the beginning of study and twice weekly through week 4. Drug effectiveness were determined by comparing tumor growth in treated versus untreated (no vehicle) control mice. Five types of endpoints were used as the basis for comparison: (a) mean tumor volumes at day 24; (b) mean percent change in individual tumor volumes from initial; (c) percent difference in tumor volume (%T/C), measured when the control group's median tumor volume reached approximately 800-1100 mm^3 (exponential growth phase); (d) percent difference in tumor volume (%T/C) at day 24 and (e) the number of tumor regression (smaller tumor volume on day 24 compared to day 1) per group.

Compound | IC50 (P388/0) [nM] | IC50 (P388/0; Mus musculus, 72 h) [nM] | Effectiveness in LX-1 solid tumor model (in words) [1] | Mean Vol. ± SEM at Day 24 [1] [mm^3] | % Change ± SEM at Day 24 (mean percent change in individual tumor volumes from initial) [1] [%] | T/C (%) at Day 7 [1] [%] | T/C (%) at Day 24 [1] [%] | Regression at Day 24 (#/Grp) [1] | Complete Regression (#/Grp) [1]
PEG-amide-Gemcitabine [PEG-Gemcitabine] | 46 | – | – | – | – | – | – | – | –
Nc1ccn([C@@H]2O[C@H](CO)[C@@H](O)[C@@H]2O)c(=O)n1 [Ara-C, 1-(β-D-arabinofuranosyl)cytosine] | – | 10 | ineffective | 3192.5 | 1514.8 | 112.2 | 144.6 | 0/7 | 0/7
Nc1ccn([C@@H]2O[C@H](CO)[C@@H](O)C2(F)F)c(=O)n1 [Gemcitabine, gemcitabine] | – | 2 | – | – | – | – | – | – | –
PEG-amide-Ara-C [PEG-Ara-C] | 12 | – | significant tumor growth inhibition | 2205.0 | 557.4 | 76.4 | 73.0 | 1/6 | 1/6
